Measured values as given in publication PMC12207590, “Substrate Specificity of the Organic Cation Transporters MATE1 and MATE2K and Functional Overlap with OCT1 and OCT2” (Journal of Medicinal Chemistry, 2025).
Like-named read-outs stand apart in the source and are kept apart here.

Legend:
MATE1 = target: T1, MATE1 (Homo sapiens, UniProt Q96FL8); assay: Uptake ratio in MATE1-overexpressing HEK293 cells vs empty vector (2.5 μM, 1 min, HPLC-MS/MS); assay type: cell-based; conditions: for MATE1 ratio in this study: Table S1
T1 sequence (Q96FL8 1-570): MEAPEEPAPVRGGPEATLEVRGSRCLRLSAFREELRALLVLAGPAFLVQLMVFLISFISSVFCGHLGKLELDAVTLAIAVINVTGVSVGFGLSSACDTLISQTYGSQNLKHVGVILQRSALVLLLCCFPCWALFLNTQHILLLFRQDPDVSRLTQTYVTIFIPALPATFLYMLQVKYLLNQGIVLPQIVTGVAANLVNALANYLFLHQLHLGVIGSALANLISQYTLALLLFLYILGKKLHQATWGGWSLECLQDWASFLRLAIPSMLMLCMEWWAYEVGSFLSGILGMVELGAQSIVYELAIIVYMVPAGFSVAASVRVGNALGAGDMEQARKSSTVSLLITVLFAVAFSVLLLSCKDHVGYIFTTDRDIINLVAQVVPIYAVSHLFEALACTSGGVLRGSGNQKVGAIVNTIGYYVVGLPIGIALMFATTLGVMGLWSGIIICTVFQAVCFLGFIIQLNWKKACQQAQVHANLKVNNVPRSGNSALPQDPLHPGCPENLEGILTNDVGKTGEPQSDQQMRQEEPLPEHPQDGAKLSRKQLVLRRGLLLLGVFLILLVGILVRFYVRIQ

MATE2K = MATE2K (Homo sapiens, UniProt Q86VL8); assay: Uptake ratio in MATE2K-overexpressing HEK293 cells vs empty vector (2.5 μM, 1 min, HPLC-MS/MS); assay type: cell-based; conditions: for MATE2K ratio in this study: Table S1
[1] = fold uptake over empty vector, 2.5 μM, 1 min

MATE2K, sequence (Q86VL8 1-566 isoform Q86VL8-3): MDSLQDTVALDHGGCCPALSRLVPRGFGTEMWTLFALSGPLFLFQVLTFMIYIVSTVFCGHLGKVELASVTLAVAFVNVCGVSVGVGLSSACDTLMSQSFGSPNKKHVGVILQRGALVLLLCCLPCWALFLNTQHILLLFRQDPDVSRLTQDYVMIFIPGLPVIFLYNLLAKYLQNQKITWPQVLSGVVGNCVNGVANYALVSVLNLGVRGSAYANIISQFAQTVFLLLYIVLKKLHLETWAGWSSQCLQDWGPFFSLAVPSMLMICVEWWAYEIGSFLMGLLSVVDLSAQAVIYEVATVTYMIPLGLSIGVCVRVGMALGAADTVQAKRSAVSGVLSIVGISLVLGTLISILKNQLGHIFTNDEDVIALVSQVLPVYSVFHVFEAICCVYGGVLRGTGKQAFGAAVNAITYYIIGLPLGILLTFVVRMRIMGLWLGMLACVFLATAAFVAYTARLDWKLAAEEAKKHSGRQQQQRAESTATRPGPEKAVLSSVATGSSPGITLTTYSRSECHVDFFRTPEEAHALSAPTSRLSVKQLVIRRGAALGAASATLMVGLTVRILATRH

Compound | MATE1 ratio (MATE1; [1]) | MATE2K ratio (MATE2K; [1]) | further results
CNC[C@H](O)c1ccc(O)c(O)c1 [Epinephrine (-), Epinephrine] | 37.78 | 3.98 | –
COC(=O)CCc1ccc(OCC(O)CNC(C)C)cc1 (centres unmarked) [Esmolol] | 1.42 | 1.23 | –
C[C@]12CC[C@@H]3c4ccc(OS(=O)(=O)O)cc4CC[C@H]3[C@@H]1CCC2=O [Estrone-3-sulfate] | 4.80 | 2.08 | MATE1 ratio in this study (MATE1; 2.5 μM, 1 min): 4.80; substrate of MATE1 (MATE1; organic anions tested): substrates of MATE1; MATE2K ratio in this study (MATE2K; 2.5 μM, 1 min): 2.08
CCNCC(O)c1cccc(O)c1 (centres unmarked) [Etilefrine] | 9.81 | 2.04 | –
O=S(=O)(c1cccc2cnccc12)N1CCCNCC1 [Fasudil] | 1.50 | 1.80 | –
Cc1cnc(Nc2ccc(OCCN3CCCC3)cc2)nc1Nc1cccc(S(=O)(=O)NC(C)(C)C)c1 [Fedratinib] | 1.16 | 0.87 | –
NC(=O)OCC(COC(N)=O)c1ccccc1 [Felbamate] | 0.97 | 0.94 | –
Oc1ccc(C2CNCCc3c2cc(O)c(O)c3Cl)cc1 (centres unmarked) [Fenoldopam] | 8.11 | 4.17 | –
C[N+]1(CCC(C(N)=O)(c2ccccc2)c2ccccc2)CCCCC1 [Fenpiverinium] | 15.19 | 1.35 | –
O=C(Nc1nc2cccc(-c3ccc(CN4CCS(=O)(=O)CC4)cc3)n2n1)C1CC1 [Filgotinib] | 0.89 | 1.01 | –
CCCCCCCCc1ccc(CCC(N)(CO)CO)cc1 [Fingolimod] | 1.12 | 1.14 | –
O=C(NCC1CCCCN1)c1cc(OCC(F)(F)F)ccc1OCC(F)(F)F (centres unmarked) [Flecainide] | 1.13 | 1.19 | –
OCCN1CCN(CCCN2c3ccccc3Sc3ccc(C(F)(F)F)cc32)CC1 [Fluphenazine] | 1.26 | 1.13 | –
Nc1nc(=O)c2nc(CNc3ccc(C(=O)N[C@@H](CCC(=O)O)C(=O)O)cc3)cnc2[nH]1 [Folic acid] | 1.00 | 1.13 | –
CCOC(=O)c1ccc(OC(=O)CCCCCNC(=N)N)cc1 [Gabexate] | 5.78 | 4.18 | –
NCCCC(=O)O [Gamma-aminobutyric acid] | 0.90 | 0.87 | –
COc1cc2ncnc(Nc3ccc(F)c(Cl)c3)c2cc1OCCCN1CCOCC1 [Gefitinib] | 0.89 | 0.88 | –
Nc1ccn([C@@H]2O[C@H](CO)[C@@H](O)C2(F)F)c(=O)n1 [Gemcitabine] | 1.29 | 1.08 | MATE1 ratio in this study (MATE1; 2.5 μM, 1 min): 1.29; MATE2K ratio in this study (MATE2K; 2.5 μM, 1 min): 1.08
CN(C)c1ccc(C(=C2C=CC(=[N+](C)C)C=C2)c2ccc(N(C)C)cc2)cc1 [Gentian violet] | 1.40 | 1.05 | –
N[C@@H](CCC(=O)O)C(=O)O [Glutamic acid (D), Glutamic acid] | – | – | MATE1 ratio (MATE1): 1.17; MATE2K ratio (MATE2K): 0.99
N=C(N)NC(=O)Cc1c(Cl)cccc1Cl [Guanfacine] | 1.60 | 1.37 | –
CNCC(O)c1ccccc1 (centres unmarked) [Halostachine] | 1.41 | 1.52 | –

Compound | MATE1 ratio (MATE1; [1]) | MATE2K ratio (MATE2K; [1]) | further results
COc1ccc2c3c([nH]c2c1)C(C)=NCC3 [Harmaline] | – | – | MATE1 ratio (MATE1): 1.19; MATE2K ratio (MATE2K): 1.15
CCCCCCCN [Heptylamine] | – | – | MATE1 ratio (MATE1): 1.18; MATE2K ratio (MATE2K): 1.60
CCCCCC(=O)OC(CC(=O)[O-])C[N+](C)(C)C (centres unmarked) [Hexanoylcarnitine] | 1.02 | 1.01 | –
Oc1ccc(CC2NCCc3cc(O)c(O)cc32)cc1 (centres unmarked) [Higenamine] | 14.55 | 11.27 | –
NCCc1c[nH]cn1 [Histamine] | 19.90 | 1.40 | –
NC(N)=NCCCC[C@H](N)C(=O)O [Homoarginine] | – | – | MATE1 ratio (MATE1): 0.97; MATE2K ratio (MATE2K): 0.97
CN(C)CCc1ccc(O)cc1 [Hordenine] | – | – | MATE1 ratio (MATE1): 1.16; MATE2K ratio (MATE2K): 1.20
CC(NC(C)(C)CO)C(=O)c1cccc(Cl)c1 (centres unmarked) [Hydroxybupropion] | – | – | MATE1 ratio (MATE1): 1.09; MATE2K ratio (MATE2K): 1.51
O=P1(NCCCl)OCCCN1CCCl (centres unmarked) [Ifosfamide] | – | – | MATE1 ratio (MATE1): 1.24; MATE2K ratio (MATE2K): 1.17
CCc1cc2c(cc1CC)CC(NC[C@H](O)c1ccc(O)c3[nH]c(=O)ccc13)C2 [Indacaterol] | 1.98 | 1.88 | –
CC(C)C(=O)O[C@H](CC(=O)[O-])C[N+](C)(C)C [Isobutyrylcarnitine] | 1.40 | 1.35 | –
CCC(NC(C)C)C(O)c1ccc(O)c(O)c1 (centres unmarked) [Isoetharine] | 5.65 | 1.85 | –
CC(C)NCC(O)c1ccc(O)c(O)c1 (centres unmarked) [Isoprenaline] | 16.78 | 4.67 | –
COc1cc2c(cc1OC)CC(=O)N(CCCN(C)C[C@H]1Cc3cc(OC)c(OC)cc31)CC2 [Ivabradine] | 1.14 | 1.23 | –
O=C(C[S+]([O-])Cc1ccco1)NC/C=C\COc1cc(CN2CCCCC2)ccn1 (centres unmarked) [Lafutidine] | 1.41 | 1.48 | –
CC1(C)OC[C@@H](COC(=O)CCc2ccc(OC[C@@H](O)CNCCNC(=O)N3CCOCC3)cc2)O1 [Landiolol] | 3.68 | 2.87 | –
Nc1cccc2c1CN(C1CCC(=O)NC1=O)C2=O (centres unmarked) [Lenalidomide] | 1.78 | 1.53 | –
CC(C)C[C@H](N)C(=O)O [Leucine] | 1.18 | 1.06 | –
N[C@@H](Cc1ccc(O)c(O)c1)C(=O)O [Levodopa] | 0.71 | 1.01 | –
NCCCC[C@H](N)C(=O)O [Lysine] | – | – | MATE1 ratio (MATE1): 1.13; MATE2K ratio (MATE2K): 1.05
CNCCCC12CCC(c3ccccc31)c1ccccc12 [Maprotiline] | 1.17 | 1.04 | –
O=C1CCC[C@@H]2[C@H]3CCCN4CCC[C@@H](CN12)[C@@H]34 [Matrine] | – | – | MATE1 ratio (MATE1): 1.03; MATE2K ratio (MATE2K): 1.27

Compound | MATE1 ratio (MATE1; [1]) | MATE2K ratio (MATE2K; [1]) | further results
CNC1(C)C2CCC(C2)C1(C)C (centres unmarked) [Mecamylamine] | 1.20 | 1.05 | –
C[N+]1(C)CCCC(OC(=O)C(O)(c2ccccc2)c2ccccc2)C1.[Br-] (centres unmarked) [Mepenzolate] | 23.89 | 1.72 | –
C[C@](N)(Cc1ccc(O)c(O)c1)C(=O)O [Methyldopa] | 1.04 | 1.15 | –
COC(=O)[C@@H]1[C@H]2CC[C@@H](C[C@@H]1O)N2C [Methylecgonine] | – | – | MATE1 ratio (MATE1): 1.54; MATE2K ratio (MATE2K): 1.36
CN(C)c1ccc2nc3ccc(=[N+](C)C)cc-3sc2c1 [Methylene blue] | – | – | MATE1 ratio (MATE1): 2.36; MATE2K ratio (MATE2K): 1.55
CCNC(C)Cc1ccc2c(c1)OCO2 (centres unmarked) [Methylenedioxyethamphetamine] | – | – | MATE1 ratio (MATE1): 1.07; MATE2K ratio (MATE2K): 1.39
CNC(=O)c1cccnc1 [Methylnicotinamide, N-Methylnicotinamide] | 33.89 | 5.40 | MATE1 ratio in this study (MATE1; 2.5 μM, 1 min): 33.89; MATE2K ratio in this study (MATE2K; 2.5 μM, 1 min): 5.40
CC(=O)Oc1c(C)cc(OCC(O)CNC(C)C)c(C)c1C (centres unmarked) [Metipranolol] | 1.21 | 1.17 | –
Clc1ccc(COC(Cn2ccnc2)c2ccc(Cl)cc2Cl)c(Cl)c1 (centres unmarked) [Miconazole] | 1.33 | 1.50 | –
COc1nc(C)nc(Cl)c1N=C1NCCN1 [Moxonidine] | 2.02 | 1.78 | –
CC(=O)N[C@@H](CS)C(=O)O [N-Acetyl-L-cysteine] | 1.02 | 0.95 | –
CNCCCC1(c2ccc(F)cc2)OCc2cc(C#N)ccc21 (centres unmarked) [N-Desmethylcitalopram] | – | – | MATE1 ratio (MATE1): 1.09; MATE2K ratio (MATE2K): 1.09
CNCc1ccc(CSCCN/C(=C/[N+](=O)[O-])NC)o1 [N-Desmethylranitidine] | 23.54 | 14.02 | –
CNCCc1ccccc1 [N-Methyl-2-phenylethylamine] | 1.27 | 1.50 | –
CNCCc1ccc(O)cc1 [N-Methyl-p-Tyramine] | – | – | MATE1 ratio (MATE1): 3.11; MATE2K ratio (MATE2K): 1.39
CNCCc1c[nH]c2ccc(O)cc12 [N-Methylserotonin] | – | – | MATE1 ratio (MATE1): 26.34; MATE2K ratio (MATE2K): 8.85
CN(C)C(N)=NCCC[C@H](N)C(=O)O [NN-Dimethylarginine] | 0.97 | 0.93 | –
CC(C)(C)NCC(O)COc1cccc2c1CC(O)C(O)C2 (centres unmarked) [Nadolol] | 9.41 | 10.12 | MATE1 ratio in this study (MATE1; 2.5 μM, 1 min): 9.41; MATE2K ratio in this study (MATE2K; 2.5 μM, 1 min): 10.12
CNS(=O)(=O)CCc1ccc2[nH]cc(C3CCN(C)CC3)c2c1 [Naratriptan] | 10.81 | 8.34 | –
OC(CNCC(O)C1CCc2cc(F)ccc2O1)C1CCc2cc(F)ccc2O1 (centres unmarked) [Nebivolol] | 1.41 | 1.45 | –
